From patent US10941158B2, “Pyrazole ACC inhibitors and uses thereof” (Gilead Apollo, LLC, priority 2015, dated 2021)
Values after ≈ are worked out from the molar mass of the structure shown.

Legend:
[1] = tested on: ACC2; conditions: ACC2 isolated from rat, mouse, monkey and human; cited from earlier work
[2] = tested on: ACC1; conditions: ACC1 isolated from rat, mouse, monkey and human; cited from earlier work
[3] = tested on: C. albicans ATCC 90028; test: Anti-Fungal (Candida) Activity Assay, broth microtiter MIC; assay type: cell-based; conditions: ATCC90028, 3 replicates, MIC recorded at 48 h, read-out: MIC C. albicans ATCC 90028
Method in brief: (§1)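 Test compounds were dissolved in DMSO at 1 mg/mL (stock) and challenged against direct colony suspensions in RPMI 1640 with MOPS under CLSI M27-A3 broth microdilution. Growth was judged by eye relative to drug-free control after 48 h.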

[4] = tested on: C. krusei ATCC 6258; test: as above; assay type: cell-based; conditions: Pichia kudriavzevii, ATCC6258; 3 replicates, MIC recorded at 48 h; read-out: MIC C. krusei ATCC 6258
Method in brief: as §1

[5] = tested on: C. parapsilosis ATCC 22019; test: as above; assay type: cell-based; conditions: Lodderomyces parapsilosis, ATCC22019; 3 replicates, MIC recorded at 48 h; read-out: MIC C. parapsilosis ATCC 22019
Method in brief: as §1

[6] = target: fungal (fACC2) ACC2 (UniProt Q00955); conditions: read-out: fACC2 IC50; fungal ACC2, ADP-Glo
[7] = target: human (hACC2) ACC2 (Homo sapiens, UniProt O00763); test: In vitro Acetyl-CoA Carboxylase (ACC) inhibition assay (ADP-Glo), hACC2; assay type: biochemical
Method: The detailed procedure is as follows. […] 10 μL ADP glo reagent was added. […] 20 μL kinase detection reagent was added.
“NA” stands for “not assayed.”

[8] = tested on: Fusarium moniliforme (Fm); test: Growth inhibition assay of fungal pathogens; assay type: cell-based; conditions: Fusarium verticillioides, 48 h, Table 4b, 48 hours; read-out: Concentration at 90% Inhibition Fm
Method in brief: (§2)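 Liquid-culture assay in which test compounds are applied at three final concentrations (50, 10, 2 ppm or 2, 0.4, 0.08 ppm). Inoculum levels follow 48 h growth curves for each fungus. Growth is monitored by OD600 and by eye, and the 48 h values give % inhibition against DMSO.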

[9] = tested on: Rhizoctonia solani (Rs); test: Growth inhibition assay of fungal pathogens; assay type: cell-based; conditions: 48 h, Table 4b, read-out: Concentration at 90% Inhibition Rs
Method in brief: as §2

[10] = tested on: Collectotrichum graminicola (Cg); test: Growth inhibition assay of fungal pathogens; assay type: cell-based; conditions: 48 h, Table 4b, read-out: Concentration at 90% Inhibition Cg
Method in brief: (§3)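 Compounds in DMSO tested at final 50, 10, 2 ppm or 2, 0.4, 0.08 ppm. Spores in 17% V8 medium, or 1.5 mm mycelial plugs in ¼ PDB for R. solani, incubated with compound. OD600 and visual ratings at 48 h versus 2% DMSO control gave percent growth inhibition.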

[11] = tested on: Septoria tritici (St); test: Growth inhibition assay of fungal pathogens; assay type: cell-based; conditions: Zymoseptoria tritici; Table 4b, 48 hours; read-out: Concentration at 90% Inhibition St
Method in brief: as §3

[12] = tested on: Botrtyis cinerea (Bc); test: Growth inhibition assay of fungal pathogens; assay type: cell-based; conditions: 48 h, Table 4b, read-out: Concentration at 90% Inhibition Bc
Method in brief: as §2

[13] = tested on: Fusarium virguliforme (Fv); test: Growth inhibition assay of fungal pathogens; assay type: cell-based; conditions: 48 h, Table 4b, 48 hours, read-out: Concentration at 90% Inhibition Fv
Method in brief: as §3

[14] = tested on: Diplodia maydis (Dm); test: Growth inhibition assay of fungal pathogens; assay type: cell-based; conditions: Stenocarpella maydis, 48 h, Table 4b, read-out: Concentration at 90% Inhibition Dm
Method in brief: as §2

[15] = tested on: Phytophthora capsici (Pc); test: Growth inhibition assay of fungal pathogens; assay type: cell-based; conditions: Phytophthora capsici; Table 4b, 48 hours; read-out: Concentration at 90% Inhibition Pc
Method in brief: as §3

Chain of human (hACC2) ACC2 (O00763 whole entry): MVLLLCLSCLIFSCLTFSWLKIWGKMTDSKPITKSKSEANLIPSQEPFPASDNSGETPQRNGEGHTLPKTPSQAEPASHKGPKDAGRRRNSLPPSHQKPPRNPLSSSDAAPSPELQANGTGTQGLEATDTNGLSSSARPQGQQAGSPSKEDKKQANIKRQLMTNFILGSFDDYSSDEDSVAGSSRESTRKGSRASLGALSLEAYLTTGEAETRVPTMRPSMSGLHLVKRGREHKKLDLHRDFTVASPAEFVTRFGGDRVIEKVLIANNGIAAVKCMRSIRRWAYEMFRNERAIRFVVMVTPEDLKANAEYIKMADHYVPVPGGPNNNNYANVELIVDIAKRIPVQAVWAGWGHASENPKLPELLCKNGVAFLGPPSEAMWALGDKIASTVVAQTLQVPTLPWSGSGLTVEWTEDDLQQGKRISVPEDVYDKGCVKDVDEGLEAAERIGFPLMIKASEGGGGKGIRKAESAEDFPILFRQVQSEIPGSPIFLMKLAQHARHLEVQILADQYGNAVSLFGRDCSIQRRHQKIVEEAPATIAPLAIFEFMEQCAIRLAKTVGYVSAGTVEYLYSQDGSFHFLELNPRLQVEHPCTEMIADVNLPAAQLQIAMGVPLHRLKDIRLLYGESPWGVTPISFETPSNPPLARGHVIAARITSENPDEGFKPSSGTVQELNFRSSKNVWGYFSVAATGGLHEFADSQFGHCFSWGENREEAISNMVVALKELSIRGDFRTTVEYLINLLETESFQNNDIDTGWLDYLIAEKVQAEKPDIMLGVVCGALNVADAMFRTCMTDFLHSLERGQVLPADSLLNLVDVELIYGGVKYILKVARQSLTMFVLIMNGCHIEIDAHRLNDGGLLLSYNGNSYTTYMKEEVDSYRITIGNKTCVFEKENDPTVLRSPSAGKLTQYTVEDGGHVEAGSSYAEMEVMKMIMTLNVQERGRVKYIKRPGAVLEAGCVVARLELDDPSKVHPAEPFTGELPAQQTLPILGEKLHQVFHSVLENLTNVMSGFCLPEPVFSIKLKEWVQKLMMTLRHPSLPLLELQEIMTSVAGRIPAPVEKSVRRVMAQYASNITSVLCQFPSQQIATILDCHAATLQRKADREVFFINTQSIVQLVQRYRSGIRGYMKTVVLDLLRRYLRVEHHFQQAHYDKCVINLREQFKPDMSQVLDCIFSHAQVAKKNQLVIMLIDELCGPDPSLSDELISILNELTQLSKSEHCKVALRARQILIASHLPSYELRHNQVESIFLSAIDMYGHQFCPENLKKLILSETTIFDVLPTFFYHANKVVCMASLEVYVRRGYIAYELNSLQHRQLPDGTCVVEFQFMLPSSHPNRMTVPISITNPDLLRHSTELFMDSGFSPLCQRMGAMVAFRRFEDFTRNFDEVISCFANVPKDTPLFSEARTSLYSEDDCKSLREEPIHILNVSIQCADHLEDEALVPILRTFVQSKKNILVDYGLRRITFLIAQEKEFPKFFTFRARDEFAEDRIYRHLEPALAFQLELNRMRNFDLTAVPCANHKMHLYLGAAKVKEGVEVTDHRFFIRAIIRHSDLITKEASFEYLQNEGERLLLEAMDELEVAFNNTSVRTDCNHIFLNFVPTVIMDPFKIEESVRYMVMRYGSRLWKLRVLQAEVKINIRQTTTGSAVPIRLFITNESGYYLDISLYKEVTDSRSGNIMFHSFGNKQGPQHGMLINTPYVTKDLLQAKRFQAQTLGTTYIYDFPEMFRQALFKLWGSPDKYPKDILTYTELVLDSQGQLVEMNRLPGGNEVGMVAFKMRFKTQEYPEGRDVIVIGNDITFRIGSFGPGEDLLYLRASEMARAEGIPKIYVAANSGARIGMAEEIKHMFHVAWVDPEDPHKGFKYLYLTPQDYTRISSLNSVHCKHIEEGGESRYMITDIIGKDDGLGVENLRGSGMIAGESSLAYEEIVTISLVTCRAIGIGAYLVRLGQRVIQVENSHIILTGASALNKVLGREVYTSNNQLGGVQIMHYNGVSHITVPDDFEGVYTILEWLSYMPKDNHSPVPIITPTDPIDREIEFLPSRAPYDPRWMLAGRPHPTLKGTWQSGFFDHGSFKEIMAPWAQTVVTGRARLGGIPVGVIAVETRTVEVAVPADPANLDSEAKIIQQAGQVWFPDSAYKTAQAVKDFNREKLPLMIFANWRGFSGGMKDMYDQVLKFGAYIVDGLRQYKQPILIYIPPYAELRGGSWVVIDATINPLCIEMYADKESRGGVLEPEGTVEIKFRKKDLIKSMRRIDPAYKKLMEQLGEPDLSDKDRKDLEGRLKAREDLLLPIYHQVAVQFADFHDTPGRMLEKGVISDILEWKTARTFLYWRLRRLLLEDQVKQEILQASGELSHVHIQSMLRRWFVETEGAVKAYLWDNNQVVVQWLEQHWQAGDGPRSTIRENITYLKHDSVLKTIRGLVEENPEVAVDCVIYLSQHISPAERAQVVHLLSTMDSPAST
Chain of fungal (fACC2) ACC2 (Q00955 whole entry): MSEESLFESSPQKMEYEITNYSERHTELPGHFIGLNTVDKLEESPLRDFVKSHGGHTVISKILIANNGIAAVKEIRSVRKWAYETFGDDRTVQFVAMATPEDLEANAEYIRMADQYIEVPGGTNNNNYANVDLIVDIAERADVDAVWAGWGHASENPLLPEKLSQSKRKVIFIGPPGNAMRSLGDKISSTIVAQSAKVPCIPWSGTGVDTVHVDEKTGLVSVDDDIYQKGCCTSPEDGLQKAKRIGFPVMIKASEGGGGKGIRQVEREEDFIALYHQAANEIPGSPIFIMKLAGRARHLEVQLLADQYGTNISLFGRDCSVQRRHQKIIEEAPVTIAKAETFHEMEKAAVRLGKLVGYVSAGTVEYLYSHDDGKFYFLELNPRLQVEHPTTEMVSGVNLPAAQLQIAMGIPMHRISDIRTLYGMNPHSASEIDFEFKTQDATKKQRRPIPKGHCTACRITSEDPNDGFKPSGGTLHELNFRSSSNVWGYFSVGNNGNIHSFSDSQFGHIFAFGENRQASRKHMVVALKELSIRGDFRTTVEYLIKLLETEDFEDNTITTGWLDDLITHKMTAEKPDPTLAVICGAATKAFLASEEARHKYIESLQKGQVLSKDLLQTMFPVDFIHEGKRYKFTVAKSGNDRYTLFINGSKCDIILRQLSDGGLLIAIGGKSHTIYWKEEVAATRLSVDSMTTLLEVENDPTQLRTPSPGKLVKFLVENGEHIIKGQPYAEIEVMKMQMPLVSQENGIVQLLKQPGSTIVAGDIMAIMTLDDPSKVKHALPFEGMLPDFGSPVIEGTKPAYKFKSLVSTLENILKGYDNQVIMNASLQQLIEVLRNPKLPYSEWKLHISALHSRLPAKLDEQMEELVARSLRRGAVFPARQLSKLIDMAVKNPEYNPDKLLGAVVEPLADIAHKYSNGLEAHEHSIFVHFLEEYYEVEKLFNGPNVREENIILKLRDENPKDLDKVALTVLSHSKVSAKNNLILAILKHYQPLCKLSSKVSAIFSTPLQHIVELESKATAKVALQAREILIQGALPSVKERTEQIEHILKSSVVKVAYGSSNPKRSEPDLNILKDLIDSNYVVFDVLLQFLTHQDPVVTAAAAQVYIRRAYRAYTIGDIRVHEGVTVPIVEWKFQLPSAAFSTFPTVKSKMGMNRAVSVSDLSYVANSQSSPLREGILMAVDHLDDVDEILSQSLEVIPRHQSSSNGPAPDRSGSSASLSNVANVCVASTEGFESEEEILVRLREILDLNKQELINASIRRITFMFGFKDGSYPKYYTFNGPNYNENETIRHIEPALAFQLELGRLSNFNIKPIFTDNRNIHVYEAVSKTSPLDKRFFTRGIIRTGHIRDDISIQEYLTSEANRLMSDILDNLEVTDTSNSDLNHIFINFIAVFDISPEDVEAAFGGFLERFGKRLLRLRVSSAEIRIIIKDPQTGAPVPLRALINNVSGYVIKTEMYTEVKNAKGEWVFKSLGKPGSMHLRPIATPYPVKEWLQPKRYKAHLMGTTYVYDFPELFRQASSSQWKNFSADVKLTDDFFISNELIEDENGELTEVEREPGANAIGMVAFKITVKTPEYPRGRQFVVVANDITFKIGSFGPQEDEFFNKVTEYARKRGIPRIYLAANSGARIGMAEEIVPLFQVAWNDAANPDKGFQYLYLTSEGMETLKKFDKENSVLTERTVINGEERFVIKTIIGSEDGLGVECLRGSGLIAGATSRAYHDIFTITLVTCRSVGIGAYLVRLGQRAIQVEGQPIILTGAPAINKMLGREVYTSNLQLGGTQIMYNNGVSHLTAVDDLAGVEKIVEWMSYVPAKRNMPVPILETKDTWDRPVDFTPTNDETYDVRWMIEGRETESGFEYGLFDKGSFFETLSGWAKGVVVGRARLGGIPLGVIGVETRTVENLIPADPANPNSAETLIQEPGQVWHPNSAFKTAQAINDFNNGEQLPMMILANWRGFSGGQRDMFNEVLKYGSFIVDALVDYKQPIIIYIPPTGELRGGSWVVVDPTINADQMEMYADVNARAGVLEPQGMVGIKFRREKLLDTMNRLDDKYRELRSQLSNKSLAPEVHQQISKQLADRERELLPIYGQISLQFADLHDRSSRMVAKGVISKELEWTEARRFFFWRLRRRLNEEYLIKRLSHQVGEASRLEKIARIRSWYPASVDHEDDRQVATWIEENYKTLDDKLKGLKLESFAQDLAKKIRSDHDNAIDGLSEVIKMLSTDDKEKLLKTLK

SMILES | IC50 [1] [nM] | IC50 [2] [nM] | MIC [3] [µg/mL] | MIC [4] [µg/mL] | MIC [5] [µg/mL] | IC50 [6] [nM] | IC50 [7] [nM] | IC90 [8] [µg/mL] | IC90 [9] [µg/mL] | IC90 [10] [µg/mL] | IC90 [11] [µg/mL] | IC90 [12] [µg/mL] | IC90 [13] [µg/mL] | IC90 [14] [µg/mL] | IC90 [15] [µg/mL]
O=C(c1c2ccccc2cc2ccccc12)N1CCC(N2CCC[C@@H](C(=O)N3CCOCC3)C2)CC1 [CP-640186] | ~60 | ~60 | – | – | – | – | – | – | – | – | – | – | – | – | –
COc1ccc(F)cc1[C@H](Cn1c(=O)n(C(C)(C)C(=O)O)c(=O)c2c(C)c(-n3cccn3)sc21)OCCC#N [Compound I-82] | – | – | > 4.1 | > 4.1 | > 4.1 | 0.6 to 3 | 10 to 40 | 2 (≈ 3.6 µM) | 10 (≈ 18 µM) | > 50 | > 50 | 10 (≈ 18 µM) | 10 (≈ 18 µM) | > 50 | > 50
COc1ccc(F)cc1[C@@H](O)Cn1c(=O)n(C(C)(C)C(=O)O)c(=O)c2c(C)c(-n3cccn3)sc21 [Compound I-85] | – | – | 2.1 to 4 (≈ 4.18 to 7.96 µM) | 0.25 to 1 (≈ 0.497 to 1.99 µM) | 0.25 to 1 (≈ 0.497 to 1.99 µM) | 0.6 to 3 | 10 to 40 | 10 (≈ 19.9 µM) | 10 (≈ 19.9 µM) | > 50 | > 50 | > 50 | > 50 | > 50 | > 50
